These compounds were tested against PD-1/PD-L1 (Homo sapiens, UniProt Q9NZQ7) (assay: TR-FRET PD-1/PD-L1 binding inhibition at the molecular level (free proteins)). Conditions: Tag1-PD-L1 and Tag2-PD-1 proteins, twelve concentrations from 200 nM, 2 hours at room temperature, read-out: FRET assay (IC50).
In short: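 HTRF read-out at 665/620 nm after 2 h at room temperature. Detection used anti-Tag1 Eu cryptate plus anti-Tag2 XL665 antibodies. Tagged PD-L1 and PD-1 proteins were pre-mixed with compound across twelve […] 1:2 dilutions starting at 200 nM.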

PD-1/PD-L1, sequence (Q9NZQ7 19-238 limits assumed): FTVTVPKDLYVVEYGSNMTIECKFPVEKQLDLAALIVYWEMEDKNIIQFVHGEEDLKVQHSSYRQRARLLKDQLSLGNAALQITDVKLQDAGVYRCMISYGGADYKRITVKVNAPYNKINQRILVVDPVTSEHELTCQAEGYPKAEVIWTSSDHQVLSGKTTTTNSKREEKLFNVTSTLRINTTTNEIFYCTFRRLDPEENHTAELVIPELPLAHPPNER

IC50 [nM] | SMILES
< 10 | COc1cc(-c2cccc(-c3cccc(NC(=O)c4cc5n(n4)CCCC5NCCO)c3Cl)c2Cl)cc(F)c1CNCCNC(C)=O (stereo not drawn) [Compound 120, N-(4"-(((2-acetamidoethyl)amino)methyl)-2,2'-dichloro-3"-fluoro-5"-methoxy-[1,1':3',1"-terphenyl]-3-yl)-4-((2-hydroxyethyl)amino)-4,5,6,7-tetrahydropyrazolo[1,5-a]pyridine-2-carboxamide]
10 to 100 | O=C(Nc1cccc(-c2cccc(Nc3nc(C(F)(F)F)nc4cccnc34)c2Cl)c1Cl)c1cc2n(n1)CCC[C@H]2N1CCC(C(=O)O)CC1 [Compound 274, (R)-1-(2-((2,2'-dichloro-3'-((2-(trifluoromethyl)pyrido[3,2-d]pyrimidin-4-yl)amino)-[1,1'-biphenyl]-3-yl)carbamoyl)-4,5,6,7-tetrahydropyrazolo[1,5-a]pyridin-4-yl)piperidine-4-carboxylic acid]
10 to 100 | O=C(Nc1cccc(-c2cccc(Nc3nc(C(F)(F)F)nc4cccnc34)c2Cl)c1Cl)c1cc2n(n1)CCC[C@H]2N1CCC(O)CC1 [Compound 304, (R)-N-(2,2'-dichloro-3'-((2-(trifluoromethyl)pyrido[3,2-d]pyrimidin-4-yl)amino)-[1,1'-biphenyl]-3-yl)-4-(4-hydroxypiperidin-1-yl)-4,5,6,7-tetrahydropyrazolo[1,5-a]pyridine-2-carboxamide]
< 10 | COc1cc(C(=O)Nc2cccc(-c3cccc(NC(=O)c4cc5n(n4)CCCC5N4CC[C@@H](C(=O)O)C4)c3Cl)c2Cl)cc(F)c1CNCCO (stereo partly drawn) [Compound 194, (3R)-1-(2-((2,2'-dichloro-3'-(3-fluoro-4-(((2-hydroxyethyl)amino)methyl)-5-methoxybenzamido)-[1,1'-biphenyl]-3-yl)carbamoyl)-4,5,6,7-tetrahydropyrazolo[1,5-a]pyridin-4-yl)pyrrolidine-3-carboxylic acid]
10 to 100 | CC(C)c1nc(Nc2cccc(-c3cccc(NC(=O)c4cc5n(n4)CCC[C@H]5N4CC(C(=O)O)C4)c3Cl)c2Cl)c2ncccc2n1 [Compound 302, (R)-1-(2-((2,2'-dichloro-3'-((2-isopropyl-pyrido[3,2-d]pyrimidin-4-yl)amino)-[1,1'-biphenyl]-3-yl)carbamoyl)-4,5,6,7-tetrahydropyrazolo[1,5-a]pyridin-4-yl)azetidine-3-carboxylic acid]
< 10 | COc1cc(-c2cccc(-c3cccc(NC(=O)c4cc5n(n4)CCCC5NCC(=O)O)c3Cl)c2Cl)cc(F)c1CNCCO (stereo not drawn) [Compound 186, 2-((2-((2,2'-dichloro-3"-fluoro-4"-(((2-hydroxyethyl)amino)methyl)-5"-methoxy-[1,1':3',1"-terphenyl]-3-yl)carbamoyl)-4,5,6,7-tetrahydropyrazolo[1,5-a]pyridin-4-yl)amino)acetic acid]
10 to 100 | O=C(Nc1cccc(-c2cccc(Nc3nccc4cc(CN5CC[C@@H](O)C5)cnc34)c2Cl)c1Cl)c1cc2n(n1)CCCN2CCO [Compound 322, (R)-N-(2,2'-dichloro-3'-((3-((3-hydroxypyrrolidin-1-yl)methyl)-1,7-naphthyridin-8-yl)amino)-[1,1'-biphenyl]-3-yl)-4-(2-hydroxyethyl)-4,5,6,7-tetrahydropyrazolo[1,5-a]pyrimidine-2-carboxamide]
10 to 100 | COc1cc(-c2cccc(-c3cccc(NC(=O)c4cc5n(n4)CCCC5O)c3Cl)c2Cl)cc(F)c1CNCCNC(C)=O (stereo not drawn) [Compound 116, N-(4"-(((2-acetamidoethyl)amino)methyl)-2,2'-dichloro-3"-fluoro-5"-methoxy-[1,1':3',1"-terphenyl]-3-yl)-4-hydroxy-4,5,6,7-tetrahydropyrazolo[1,5-a]pyridine-2-carboxamide]

Continued, compound first:

SMILES | IC50 [nM]
CS(=O)(=O)NCCNC1CCCn2nc(C(=O)Nc3cccc(-c4cccc(Nc5nccc6cc(CN7CC[C@@H](O)C7)cnc56)c4Cl)c3Cl)cc21 (stereo partly drawn) [Compound 235, N-(2,2'-dichloro-3'-((3-(((R)-3-hydroxypyrrolidin-1-yl)methyl)-1,7-naphthyridin-8-yl)amino)-[1,1'-biphenyl]-3-yl)-4-((2-(methylsulfonamido)ethyl)amino)-4,5,6,7-tetrahydropyrazolo[1,5-a]pyridine-2-carboxamide] | 10 to 100
CC(=O)NCCNC1CCCn2nc(-c3cccc(-c4cccc(Nc5nccc6cc(CN7CC[C@@H](O)C7)cnc56)c4Cl)c3Cl)cc21 (stereo partly drawn) [Compound 181, N-(2-((2-(2,2'-dichloro-3'-((3-(((R)-3-hydroxypyrrolidin-1-yl)methyl)-1,7-naphthyridin-8-yl)amino)-[1,1'-biphenyl]-3-yl)-4,5,6,7-tetrahydropyrazolo[1,5-a]pyridin-4-yl)amino)ethyl)acetamide] | < 10
O=C1CCC2(CN(C3CCCn4nc(C(=O)Nc5cccc(-c6cccc(Nc7nccc8cc(CN9CC[C@@H](O)C9)cnc78)c6Cl)c5Cl)cc43)C2)N1 (stereo partly drawn) [Compound 238, N-(2,2'-dichloro-3'-((3-(((R)-3-hydroxypyrrolidin-1-yl)methyl)-1,7-naphthyridin-8-yl)amino)-[1,1'-biphenyl]-3-yl)-4-(6-oxo-2,5-diazaspiro[3.4]octan-2-yl)-4,5,6,7-tetrahydropyrazolo[1,5-a]pyridine-2-carboxamide] | 10 to 100
Cc1nc(Nc2cccc(-c3cccc(NC(=O)c4cc5n(n4)CCC[C@H]5NC(C)(C)C(=O)O)c3Cl)c2Cl)c2ncccc2n1 [Compound 280, (R)-2-((2-((2,2'-dichloro-3'-((2-methylpyrido[3,2-d]pyrimidin-4-yl)amino)-[1,1'-biphenyl]-3-yl)carbamoyl)-4,5,6,7-tetrahydropyrazolo[1,5-a]pyridin-4-yl)amino)-2-methylpropanoic acid] | < 10
O=C(Nc1cccc(-c2cccc(Nc3nc(C(F)F)nc4cc(CN5CC[C@@H](O)C5)cnc34)c2Cl)c1Cl)c1cc2n(n1)CCCC2N1CC[C@@H](C(=O)O)C1 (stereo partly drawn) [Compound 142, (3R)-1-(2-((2,2'-dichloro-3'-((2-(difluoromethyl)-7-(((R)-3-hydroxypyrrolidin-1-yl)methyl)pyrido[3,2-d]pyrimidin-4-yl)amino)-[1,1'-biphenyl]-3-yl)carbamoyl)-4,5,6,7-tetrahydropyrazolo[1,5-a]pyridin-4-yl)pyrrolidine-3-carboxylic acid] | < 10
COc1cc(-c2cccc(-c3cccc(NC(=O)c4cc5n(n4)CCCC5NCCO)c3Cl)c2Cl)cc(F)c1CNC[C@@H]1CCC(=O)N1 (stereo partly drawn) [Compound 126, N-(2,2'-dichloro-3"-fluoro-5"-methoxy-4"-(((((S)-5-oxopyrrolidin-2-yl)methyl)amino)methyl)-[1,1':3',1"-terphenyl]-3-yl)-4-((2-hydroxyethyl)amino)-4,5,6,7-tetrahydropyrazolo[1,5-a]pyridine-2-carboxamide] | 10 to 100
O=C(Nc1cccc(-c2cccc(Nc3nccc4cc(CN5CC[C@@H](O)C5)cnc34)c2Cl)c1Cl)c1cc2n(n1)CCCC2N1CCCC1=O (stereo partly drawn) [Compound 240, N-(2,2'-dichloro-3'-((3-(((R)-3-hydroxypyrrolidin-1-yl)methyl)-1,7-naphthyridin-8-yl)amino)-[1,1'-biphenyl]-3-yl)-4-(2-oxopyrrolidin-1-yl)-4,5,6,7-tetrahydropyrazolo[1,5-a]pyridine-2-carboxamide] | 10 to 100
COc1cc(-c2cccc(-c3cccc(NC(=O)c4cc5n(n4)CCCC5NCCO)c3Cl)c2Cl)cc(F)c1CN1CC[C@@H](O)C1 (stereo partly drawn) [Compound 122, N-(2,2'-dichloro-3"-fluoro-4"-(((R)-3-hydroxypyrrolidin-1-yl)methyl)-5"-methoxy-[1,1':3',1"-terphenyl]-3-yl)-4-((2-hydroxyethyl)amino)-4,5,6,7-tetrahydropyrazolo[1,5-a]pyridine-2-carboxamide] | < 10
O=C(Nc1cccc(-c2cccc(NC(=O)c3cc4n(n3)CCC[C@@H]4N3CC[C@@H](O)C3)c2Cl)c1Cl)c1ccc(CNCCO)cn1 [Compound 243, (S)-N-(2,2'-dichloro-3'-(5-(((2-hydroxyethyl)amino)methyl)picolinamido)-[1,1'-biphenyl]-3-yl)-4-((R)-3-hydroxypyrrolidin-1-yl)-4,5,6,7-tetrahydropyrazolo[1,5-a]pyridine-2-carboxamide] | < 10
Cc1c(NC(=O)c2ccc(CN3CC[C@@H](O)C3)cn2)cccc1-c1cccc(NC(=O)c2cc3n(n2)CCC[C@@H]3N2CCCC[C@@H]2CO)c1C [Compound 309, (S)-4-((R)-2-(hydroxymethyl)piperidin-1-yl)-N-(3'-(5-(((R)-3-hydroxypyrrolidin-1-yl)methyl)picolinamido)-2,2'-dimethyl-[1,1'-biphenyl]-3-yl)-4,5,6,7-tetrahydropyrazolo[1,5-a]pyridine-2-carboxamide] | < 10
O=C1CC[C@@H](CNCc2ccc(-c3cccc(-c4cccc(NC(=O)c5cc6n(n5)CCCC6O)c4Cl)c3Cl)cc2)N1 (stereo partly drawn) [Compound 111, N-(2,2'-dichloro-4"-(((((S)-5-oxopyrrolidin-2-yl)methyl)amino)methyl)-[1,1':3',1"-terphenyl]-3-yl)-4-hydroxy-4,5,6,7-tetrahydropyrazolo[1,5-a]pyridine-2-carboxamide] | < 10
O=C(O)CN[C@H]1CCCn2nc(C(=O)Nc3cccc(-c4cccc(Nc5nc(C(F)F)nc6cc(CN7CC[C@@H](O)C7)cnc56)c4Cl)c3Cl)cc21 (stereo in doubt) [Compound 294, 2-(((S)-2-((2,2'-dichloro-3'-((2-(difluoromethyl)-7-(((R)-3-hydroxypyrrolidin-1-yl)methyl)pyrido[3,2-d]pyrimidin-4-yl)amino)-[1,1'-biphenyl]-3-yl)carbamoyl)-4,5,6,7-tetrahydropyrazolo[1,5-a]pyridin-4-yl)amino)acetic acid] | 10 to 100
O=C(Nc1cccc(-c2cccc(Nc3nc(C(F)F)nc4cc(CN5CC[C@@H](O)C5)cnc34)c2Cl)c1Cl)c1cc2n(n1)CCCC2NCCO (stereo partly drawn) [Compound 141, N-(2,2'-dichloro-3'-((2-(difluoromethyl)-7-(((R)-3-hydroxypyrrolidin-1-yl)methyl)pyrido[3,2-d]pyrimidin-4-yl)amino)-[1,1'-biphenyl]-3-yl)-4-((2-hydroxyethyl)amino)-4,5,6,7-tetrahydropyrazolo[1,5-a]pyridine-2-carboxamide] | 10 to 100
